# In patent publication US10624894B2, “Pharmaceutical product and communication tool” (ScientificMed Sweden AB, priority 2011, dated 2020):
# How the values were obtained:
# [1] = source: EPAR summary for Lyrica; cited from earlier work
# [2] = system: patients with newly reported Acute Coronary Syndrome (ACS); experiment: Study 5: randomized controlled trial, Ticagrelor with QFM (active group) versus Ticagrelor with e-diary (control group); type: in vivo, human
# From the text: The study design was two different patient groups with at least eighty patients in each group. The group using the invention, hereafter called the active group, used their own mobile phones to use the QFM described above and the actual drug Ticagrelor. The other group, hereafter called the control group, used their own mobile phones with just an e-diary (control app) and the actual drug Ticagrelor.
# Study design: Randomized Controlled Trial with two different patient groups
# Intervention to evaluate: The invention using the above described QFM in the patients mobile phones, integrated with the actual drug
# Actual used drug: Ticagrelor (Brilique)
# Control: e-diary. The e-diary consisted of the following items and functionalities, enabling data for study evaluation • The questions concerning adherence to the specific drug, being able to answer whether the patient took the drug in the morning and/or in the evening, for the actual day and the day before. • A reminder through a text message if the patient missed to answer the adherence questions during one day
# Patient group: Patients with newly reported Acute Coronary Syndrome (ACS).
# Number of patients in total: 166
# Length of using the invention: Six months
# Primary objective: Assess the non-adherence to the drug according to the prescription recommendation in patients using the invention compared to patients who only use the control-app
# The primary endpoint definition was according to the following: Composite endpoint of adherence failure- or treatment gap events registered by patients • Adherence failure events; • More than 14% missed doses during an observation cycle of 7 days. The first missed dose of the drug initiates an observation cycle of 1 week. If a second missed dose is registered within this week an adherence failure event is registered. The third missed dose initiates a new observation cycle, and the process restarts. • Treatment gap events; • patient reported gaps of more than 4 consecutive doses
# Secondary objectives: Comparison between active group and control group concerning; • Adherence to treatment of the specific drug • Cardiovascular risk factors: • BMI • Physical activity • Blood pressure • LDL-cholesterol • Smoking cessation • Quality of life (EQ5D-VAS)
# The patients with ACS was randomly selected to one of the study arms. After inclusion patients in the active group used the described QFM in relation to the actual drug during the actual period of time.
# [3] = Active group (QFM + Ticagrelor)
# [4] = Control group (e-diary + Ticagrelor)
Compound,Common side-effects which may affect more than 1 person in 100 (among others) [1],Very common side-effects which may affect more than 1 person in 10 [1],"LDL change [2, 3]","Physical activity improvements [2, 3] [%]","Quality of life (EQ5D-VAS) change [2, 3]","Smoking cessation [2, 3] [%]","LDL change [2, 4]","Physical activity improvements [2, 4] [%]","Quality of life (EQ5D-VAS) change [2, 4]","Smoking cessation [2, 4] [%]","BMI; average decrease in weight ([2]; Patients having a BMI >30, group not stated) [%]",patient deaths during the usage of the invention ([2]; six months)
"CC(C)C[C@H](CN)CC(=O)O [A, pregabalin]","dry mouth, nausea","dizziness, tiredness",,,,,,,,,,
"CCCSc1nc(N[C@@H]2C[C@H]2c2ccc(F)c(F)c2)c2nnn([C@@H]3C[C@H](OCCO)[C@@H](O)[C@H]3O)c2n1 [Ticagrelor, ticagrelor]",,,−1.8,50,+14.7,−80,−1.0,32,+8.4,−45,5,No patients in the study died
